Results as given in PubChem BioAssay AID1259411 (Chemical Carcinogenesis Research Information System (CCRIS), 2018).
The source made the active and inactive calls. No rule for the calls is given here.

System: rodent carcinogenicity bioassays, tumor incidence
Assay: CCRIS carcinogenicity studies
Outline: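 Archive of carcinogenicity, mutagenicity, tumor promotion and tumor inhibition results drawn from journals, NCI reports and other sources, expert-reviewed; covers 1985-2011 and is no longer updated.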

In the case of `Nc1c(Cl)c(F)nc(OCC(=O)O)c1Cl`, the carcinogen call (Species: Mouse, Strain/Sex: CD-1/Female (60/Group), Route: Oral, Dose: 0, 100, 500, 1000 mg/kg/day of 98.9% fluroxypyr in diet for 18 mo, study duration 18 mo, Dose: 0, 100, 500, 1000 mg/kg/day of 98.9% fluroxypyr in diet for 18 mo, study duration 18 mo) is reported as “inactive; negative”, the carcinogen call (Species: Mouse, Strain/Sex: CD-1/Male (60/Group), Route: Oral, Dose: 0, 100, 500, 1000 mg/kg/day of 98.9% fluroxypyr in diet for 18 mo, study duration 18 mo, Dose: 0, 100, 500, 1000 mg/kg/day of 98.9% fluroxypyr in diet for 18 mo, study duration 18 mo) is reported as “inactive; negative” and the carcinogen call (Species: Rat, Strain/Sex: Fischer 344/Female (50/Group), Route: Oral, Dose: 0, 100, 500, 1000 mg/kg/day of 99.0% fluroxypyr in diet for 2 yr, study duration 2 yr, Dose: 0, 100, 500, 1000 mg/kg/day of 99.0% fluroxypyr in diet for 2 yr, study duration 2 yr) is reported as “inactive; negative”. For the same compound, the carcinogen call (Species: Rat, Strain/Sex: Fischer 344/Male (50/Group), Route: Oral, Dose: 0, 100, 500, 1000 mg/kg/day of 99.0% fluroxypyr in diet for 2 yr, study duration 2 yr, Dose: 0, 100, 500, 1000 mg/kg/day of 99.0% fluroxypyr in diet for 2 yr, study duration 2 yr) was “inactive; negative”.

In the case of `COC(=O)c1ccc(C(=O)OC)cc1`, the carcinogen call (Species: MOUSE, Strain/Sex: B6C3F1/FEMALE, Route: ORAL, Dose: 0, 2500, 5000 PPM IN DIET FOR 103 WK (STUDY DURATION: 104-105 WK), Dose: 0, 2500, 5000 PPM IN DIET FOR 103 WK (STUDY DURATION: 104-105 WK)) is reported as “inactive; negative”, the carcinogen call (Species: MOUSE, Strain/Sex: B6C3F1/MALE, Route: ORAL, Dose: 0, 2500, 5000 PPM IN DIET FOR 103 WK (STUDY DURATION: 104-105 WK), Dose: 0, 2500, 5000 PPM IN DIET FOR 103 WK (STUDY DURATION: 104-105 WK), Tumor Site: Type of Lesion: LUNG: ALVEOLAR/BRONCHIOLAR ADENOMA OR CARCINOMA) is reported as “equivocal” and the carcinogen call (Species: RAT, Strain/Sex: F344/FEMALE, Route: ORAL, Dose: 0, 2500, 5000 PPM IN DIET FOR 103 WK (STUDY DURATION: 105-106 WK), Dose: 0, 2500, 5000 PPM IN DIET FOR 103 WK (STUDY DURATION: 105-106 WK)) is reported as “inactive; negative”. For the same compound, the carcinogen call (Species: RAT, Strain/Sex: F344/MALE, Route: ORAL, Dose: 0, 2500, 5000 PPM IN DIET FOR 103 WK (STUDY DURATION: 105-106 WK), Dose: 0, 2500, 5000 PPM IN DIET FOR 103 WK (STUDY DURATION: 105-106 WK)) was “inactive; negative”.

For `C[C@]12CC[C@@H]3c4ccc(OC(=O)Cc5ccc(N(CCCl)CCCl)cc5)cc4CC[C@H]3[C@@H]1CC[C@@H]2OC(=O)Cc1ccc(N(CCCl)CCCl)cc1`, the carcinogen call (Species: MOUSE, Strain/Sex: B6C3F1/FEMALE, Route: GAVAGE, Dose: 0, 15, 30 MG/KG 3/WK FOR 52 WKS, Dose: 0, 15, 30 MG/KG 3/WK FOR 52 WKS, Tumor Site: Type of Lesion: LUNG: ALVEOLAR/BRONCHIOLAR ADENOMA OR CARCINOMA, LYMPHATIC SYSTEM: LYMPHOMA, MYOCARDIUM: SARCOMA, STOMACH, Tumor Site: Type of Lesion: LUNG: ALVEOLAR/BRONCHIOLAR ADENOMA OR CARCINOMA, LYMPHATIC SYSTEM: LYMPHOMA, MYOCARDIUM: SARCOMA, STOMACH) was “active; positive”, the carcinogen call (Species: MOUSE, Strain/Sex: B6C3F1/MALE, Route: GAVAGE, Dose: 0, 15, 30 MG/KG 3/WK FOR 52 WKS, Dose: 0, 15, 30 MG/KG 3/WK FOR 52 WKS, Tumor Site: Type of Lesion: LUNG: ALVEOLAR/BRONCHIOLAR ADENOMA OR CARCINOMA, HEMATOPOIETIC SYSTEM (LEUKEMIA): LYMPHOCYTIC LEUKEMIA, LYMPHATIC SYSTEM, Tumor Site: Type of Lesion: LUNG: ALVEOLAR/BRONCHIOLAR ADENOMA OR CARCINOMA, HEMATOPOIETIC SYSTEM (LEUKEMIA): LYMPHOCYTIC LEUKEMIA, LYMPHATIC SYSTEM) was “active; positive” and the carcinogen call (Species: RAT, Strain/Sex: SPRAGUE-DAWLEY/FEMALE, Route: GAVAGE, Dose: 0, 0.62, 1.25 MG/KG IN 0.05% POLYSORB 80 IN PHOS BUFF SALINE 3/WK FOR 52 WK, Dose: 0, 0.62, 1.25 MG/KG IN 0.05% POLYSORB 80 IN PHOS BUFF SALINE 3/WK FOR 52 WK) was “inactive; negative”. For the same compound, the carcinogen call (Species: RAT, Strain/Sex: SPRAGUE-DAWLEY/MALE, Route: GAVAGE, Dose: 0, 0.62, 1.25 MG/KG IN 0.05% POLYSORB 80 IN PHOS BUFF SALINE 3/WK FOR 52 WK, Dose: 0, 0.62, 1.25 MG/KG IN 0.05% POLYSORB 80 IN PHOS BUFF SALINE 3/WK FOR 52 WK) was “inactive; negative”.

For `[O]=[Cr](=[O])([OH])[O][Cr](=[O])(=[O])[OH]`, the carcinogen call (Species: Mouse, Strain/Sex: B6C3F1/Female, Route: Oral, Dose: 0, 14.3, 57.3, 172, 516 mg/l of water, in drinking water for 2 yr (average daily dose of 0, 1.1, 3.9, 9, and 25 mg/kg), Tumor Site: Type of Lesion: Small intestine (duodenum, jejunum, ileum): Adenomas and carcinomas) was “active; positive, authors describe as clear evidence of carcinogenic activity”, the carcinogen call (Species: Mouse, Strain/Sex: B6C3F1/Male, Route: Oral, Dose: 0, 14.3, 28.6, 85.7, 257.4 mg/l of water, in drinking water for 2 yr (average daily dose of 0, 1.1, 2.6, 7, and 17 mg/kg, Tumor Site: Type of Lesion: Small intestine (duodenum, jejunum, ileum): Adenomas and carcinomas) was “active; positive, authors describe as clear evidence of carcinogenic activity” and the carcinogen call (Species: Rat, Strain/Sex: F344/N/Female, Route: Oral, Dose: 0, 14.3, 57.3, 172, 516 mg/l of water, in drinking water for 2 yr (average daily dose of 0, 0.7, 2.7, 7, and 20 mg/kg), Tumor Site: Type of Lesion: Mouth and tongue: Squamous cell papilloma and carcinoma) was “active; positive, authors describe as clear evidence of carcinogenic activity”. For the same compound, the carcinogen call (Species: Rat, Strain/Sex: F344/N/Male, Route: Oral, Dose: 0, 14.3, 57.3, 172, 516 mg/l of water, in drinking water for 2 yr (average daily dose of 0, 0.6, 2.2, 6, and 17 mg/kg), Tumor Site: Type of Lesion: Mouth and tongue: Squamous cell papilloma and carcinoma) was “active; positive, authors describe as clear evidence of carcinogenic activity”.

With `CCC[CH2][Sn]([CH2]CCC)([CH2]CCC)[O][Sn]([CH2]CCC)([CH2]CCC)[CH2]CCC` the carcinogen call (Species: RAT, Strain/Sex: WISTAR/FEMALE, Route: ORAL, Dose: 0, 0.5, 5, 50 MG/KG DIET FOR 30 MO (STUDY DURATION: 30 MO), Dose: 0, 0.5, 5, 50 MG/KG DIET FOR 30 MO (STUDY DURATION: 30 MO), Tumor Site: Type of Lesion: ADRENAL GLAND: PHEOCHROMOCYTOMA, PITUITARY: TUMOR) was “active; positive” and the carcinogen call (Species: RAT, Strain/Sex: WISTAR/MALE, Route: ORAL, Dose: 0, 0.5, 5, 50 MG/KG DIET FOR 30 MO (STUDY DURATION: 30 MO), Dose: 0, 0.5, 5, 50 MG/KG DIET FOR 30 MO (STUDY DURATION: 30 MO), Tumor Site: Type of Lesion: ADRENAL GLAND: PHEOCHROMOCYTOMA, PITUITARY: TUMOR, PARATHYROID: ADENOMA, Tumor Site: Type of Lesion: ADRENAL GLAND: PHEOCHROMOCYTOMA, PITUITARY: TUMOR, PARATHYROID: ADENOMA) was “active; positive”.

`Nc1ccc2c(c1)C(=O)c1ccccc1C2=O` was tested, and the carcinogen call (Species: MOUSE, Strain/Sex: B6C3F1/FEMALE, Route: ORAL, Dose: 0, 0.5, 1.0% OF DIET, Dose: 0, 0.5, 1.0% OF DIET, Tumor Site: Type of Lesion: LYMPHATIC SYSTEM: MALIGNANT LYMPHOMA, LIVER: HEPATOCELLULAR CARCINOMA) was “active; positive”, the carcinogen call (Species: MOUSE, Strain/Sex: B6C3F1/MALE, Route: ORAL, Dose: 0, 0.5, 1.0% OF DIET, Dose: 0, 0.5, 1.0% OF DIET, Tumor Site: Type of Lesion: LIVER: HEPATOCELLULAR CARCINOMA, ADENOMA) was “active; positive” and the carcinogen call (Species: RAT, Strain/Sex: F344/MALE, Route: ORAL, Dose: 0, 0.35, 0.69% OF DIET, Dose: 0, 0.35, 0.69% OF DIET, Tumor Site: Type of Lesion: LIVER: HEPATOCELLULAR CARCINOMA, NEOPLASTIC NODULE) was “active; positive”.

`CCOC(=O)N(C)N=O` was tested, and the carcinogen call (Species: MOUSE, Route: INTRAPERITONEAL, Tumor Site: Type of Lesion: LUNG) was “active; positive”, the carcinogen call (Species: MOUSE, Route: ORAL, Tumor Site: Type of Lesion: ESOPHAGUS, FORESTOMACH) was “active; positive” and the carcinogen call (Species: RAT, Route: INTRAVENOUS, Tumor Site: Type of Lesion: LUNG) was “active; positive”. For the same compound, the carcinogen call (Species: RAT, Route: ORAL, Tumor Site: Type of Lesion: FORESTOMACH) was “active; positive”, the carcinogen call (Species: RAT, Strain/Sex: F344/FEMALE, Route: GAVAGE, Dose: 0, 0.35, 1.4 MG/ANIMAL IN CORN OIL 1/WK FOR 20 WK (STUDY DURATION: 114 WK), Dose: 0, 0.35, 1.4 MG/ANIMAL IN CORN OIL 1/WK FOR 20 WK (STUDY DURATION: 114 WK), Tumor Site: Type of Lesion: FORESTOMACH: CARCINOMA, ESOPHAGUS: CARCINOMA, PAPILLOMA) was “active; positive” and the carcinogen call (Species: RAT, Strain/Sex: F344/MALE, Route: ORAL, Dose: 20 PPM IN DRINKING WATER FOR 48 WK (STUDY DURATION: 104 WK), Tumor Site: Type of Lesion: FORESTOMACH: PAPILLOMA, SQUAMOUS CELL CARCINOMA) was “active; positive”.
